Assay results: patent US8906868B2, “Aminoglycoside derivatives” (Rempex Pharmaceuticals, Inc., priority 2010, dated 2014)
Values after ≈ are worked out from the molar mass of the structure shown. Read-outs that look alike come from different tables or passages of the source.

Tests used:
PAM3072 aac(6′)-II = assay: microbe, parasite or virus in culture; assay type: cell-based, Pseudomonas aeruginosa; details: Pseudomonas aeruginosa, Table 5; read-out: Compound MIC on Bacterial Strains: Pseudomonas aeruginosa PAM3072 aac(6′)-II
Experimental: (§1) To compare microbiological activity of the test compounds, minimum inhibitory concentrations (MIC.s) were determined. Antibiotic MICs were obtained using the broth microdilution method according to Clinical and Laboratory Standards Institute (CLSI) approved guidelines (Methods for dilution antimicrobial susceptibility tests for bacteria that grow aerobically; approved standard—7th ed. CLSI document M7-A7. Clinical and Laboratory Standards Institute, Wayne, Pa., incorporated herein by reference in its entirety). Antibiotics were dissolved as specified by CLSI (Performance standards for antimicrobial susceptibility testing; Seventeenth informational supplement. CLSI document M100-S17. Clinical and Laboratory Standards Institute, Wayne, Pa., incorporated herein by reference in its entirety), and were serially diluted 2-fold in cation adjusted Mueller Hinton Broth (CaMHB) at 2× concentration. Bacterial inoculums were prepared in CaMHB by suspension of a colony from an agar plate that was prepared the previous day to obtain a final concentration of 5×10^5CFU/ml. The plates were incubated for 18 hours at 35° C. […] MIC.s were determined by reading the turbidity of plate wells using a SpectraMax Plus384 plate reader (Molecular Devices, Sunnyvale, Calif., USA) at 600 nm and were confirmed by visual inspection.

PAM3073 aac(6′)-I = assay: microbe, parasite or virus in culture; assay type: cell-based, Pseudomonas aeruginosa; details: Pseudomonas aeruginosa, Table 5; read-out: Compound MIC on Bacterial Strains: Pseudomonas aeruginosa PAM3073 aac(6′)-I
Experimental: as §1

[1] = system: Staphylococcus aureus (ATCC 29213); assay: MIC, broth microdilution; details: Staphylococcus aureus
ECM6010 ant(2″)-I = assay: microbe, parasite or virus in culture; assay type: cell-based, Escherichia coli; details: Escherichia coli, read-out: Compound MIC on Bacterial Strains: ECM6010 ant(2″)-I
Experimental: as §1
(§2) Activity of the test compounds was determined using QC strains and strains with known aminoglycoside resistance mechanisms (TABLE 3). This specific panel contained strains expressing enzymes that covalently modify N2″, N3 and N3′ positions.

ECM6009 aac(3)-II = assay: microbe, parasite or virus in culture; assay type: cell-based, Escherichia coli; details: Escherichia coli, read-out: Compound MIC on Bacterial Strains: ECM6009 aac(3)-II
Experimental: as §1, §2

ECM6011 aph(3′)-I = assay: microbe, parasite or virus in culture; assay type: cell-based, Escherichia coli; details: Escherichia coli, read-out: Compound MIC on Bacterial Strains: ECM6011 aph(3′)-I
Experimental: as §1, §2

ECM6006 aph(3′)-III = assay: microbe, parasite or virus in culture; assay type: cell-based, Escherichia coli; details: Escherichia coli, read-out: Compound MIC on Bacterial Strains: ECM6006 aph(3′)-III
Experimental: as §1, §2

[2] = system: Klebsiella pneumonia (ATCC 43816); assay: MIC, broth microdilution; details: Klebsiella pneumoniae, ATCC43816, read-out: Compound MIC on Bacterial Strains: K. pneumonia ATCC 43816
ECM6003 rmtB = assay: microbe, parasite or virus in culture; assay type: cell-based, Escherichia coli; details: Escherichia coli; Table 3; read-out: Compound MIC on Bacterial Strains: ECM6003 rmtB
Experimental: as §1, §2
The panel also contained a strain expressing ribosomal RNA methylase, RmtB.

[3] = system: Escherichia coli (ATCC 25922); assay: MIC, broth microdilution; details: Escherichia coli
[4] = system: Pseudomonas aeruginosa (ATCC 27853); assay: MIC, broth microdilution; details: Pseudomonas aeruginosa
EC1002 aph(3′)-IV = assay: organism not typed; assay type: cell-based; details: read-out: Compound MIC on Bacterial Strains: EC1002 aph(3′)-IV
Experimental: as §1, §2

[5] = system: Acinetobacter baumannii (ATCC 19606); assay: MIC, broth microdilution; details: Acinetobacter baumannii, ATCC19606, read-out: Compound MIC on Bacterial Strains: A. baumannii ATCC 19606
ACM1006 acc(6′)-Ib = assay: microbe, parasite or virus in culture; assay type: cell-based, Acinetobacter baumannii; details: Acinetobacter baumannii; Table 4; read-out: Compound MIC on Bacterial Strains: Acinetobacter baumannii ACM1006 acc(6′)-Ib
Experimental: as §1

ACM1005 ATCC 19004 = assay: MIC, broth microdilution; assay type: cell-based, Acinetobacter baumannii; details: Acinetobacter baumannii, ATCC19004; Table 4; read-out: Compound MIC on Bacterial Strains: Acinetobacter baumannii ACM1005 ATCC 19004
Experimental: as §1

[6] = system: ECM6007 aac(6′) + aph(2″); assay: microbe, parasite or virus in culture; assay type: cell-based, Escherichia coli; details: Escherichia coli, 18 h; Table 4; read-out: Compound MIC on Bacterial Strains: Escherichia coli ECM6007 aac(6′) + aph(2″)
Experimental: as §1

EC1001 acc(6′)-Ib = assay: microbe, parasite or virus in culture; assay type: cell-based, Escherichia coli; details: Escherichia coli; Table 4; read-out: Compound MIC on Bacterial Strains: Escherichia coli EC1001 acc(6′)-Ib
Experimental: as §1

Sa 287 aac(6′) + aph(2″) = assay: microbe, parasite or virus in culture; assay type: cell-based, Staphylococcus aureus; details: Staphylococcus aureus, 18 h; Table 5; read-out: Compound MIC on Bacterial Strains: Staphylococcus aureus Sa 287 aac(6′) + aph(2″)
Experimental: as §1

[7] = ATCC29213, read-out: Compound MIC on Bacterial Strains: Staphylococcus aureus SAM1000 ATCC 29213, Table 5
[8] = ATCC25922, read-out: Compound MIC on Bacterial Strains: ECM6000 ATCC 25922
[9] = ATCC27853, read-out: Compound MIC on Bacterial Strains: Pseudomonas aeruginosa PAM3034 ATCC 27853

CNC[C@@H]1CCC(N)[C@@H](OC2C(O)C(O[C@H]3OCC(C)(O)[C@H](NC)C3O)[C@H](NC(=O)[C@@H](O)C(O)CN)C[C@@H]2N)O1 (stereo in doubt) [Compound 23, (2S,3R)-4-amino-N-((1R,2S,3S,4R,5S)-5-amino-4-((2R,3R,6S)-3-amino-6-((methylamino)methyl)tetrahydro-2H-pyran-2-yloxy)-2-((2R,3R,4R,5R)-3,5-dihydroxy-5-methyl-4-(methylamino)tetrahydro-2H-pyran-2-yloxy)-3-hydroxycyclohexyl)-2,3-dihydroxybutanamide]
MIC (PAM3072 aac(6′)-II): > 8 µg/mL
MIC (PAM3073 aac(6′)-I): 1 to 8 µg/mL (≈ 1.72 to 13.8 µM)
MIC ([1]; ATCC29213, read-out: Compound MIC on Bacterial Strains: S. aureus ATCC 29213, QC strain, Table 2): < 1 µg/mL
MIC [1, 7]: 1 to 8 µg/mL (≈ 1.72 to 13.8 µM)
MIC (ECM6010 ant(2″)-I): 1 to 8 µg/mL (≈ 1.72 to 13.8 µM)
MIC (ECM6009 aac(3)-II): 1 to 8 µg/mL (≈ 1.72 to 13.8 µM)
MIC (ECM6011 aph(3′)-I): 1 to 8 µg/mL (≈ 1.72 to 13.8 µM)
MIC (ECM6006 aph(3′)-III): 1 to 8 µg/mL (≈ 1.72 to 13.8 µM)
MIC [2]: < 1 µg/mL
MIC (ECM6003 rmtB): 1 to 8 µg/mL (≈ 1.72 to 13.8 µM)
MIC ([3]; ATCC25922, read-out: Compound MIC on Bacterial Strains: E. coli ATCC 25922): < 1 µg/mL
MIC [3, 8]: 1 to 8 µg/mL (≈ 1.72 to 13.8 µM)
MIC ([3]; ATCC25922, read-out: Compound MIC on Bacterial Strains: Escherichia coli ECM6000 ATCC 25922): 1 to 8 µg/mL (≈ 1.72 to 13.8 µM)
MIC ([4]; ATCC27853, read-out: Compound MIC on Bacterial Strains: P. aeruginosa ATCC 27853): 1 to 8 µg/mL (≈ 1.72 to 13.8 µM)
MIC [4, 9]: 1 to 8 µg/mL (≈ 1.72 to 13.8 µM)
MIC (EC1002 aph(3′)-IV): 1 to 8 µg/mL (≈ 1.72 to 13.8 µM)
MIC [5]: > 8 µg/mL
MIC (ACM1006 acc(6′)-Ib): 1 to 8 µg/mL (≈ 1.72 to 13.8 µM)
MIC (ACM1005 ATCC 19004): 1 to 8 µg/mL (≈ 1.72 to 13.8 µM)
MIC [6]: < 1 µg/mL
MIC (EC1001 acc(6′)-Ib): 1 to 8 µg/mL (≈ 1.72 to 13.8 µM)
MIC (Sa 287 aac(6′) + aph(2″)): 1 to 8 µg/mL

CN[C@@H]1C(O)[C@@H](OC2C(O)C(O[C@H]3O[C@H](CNCCO)CCC3N)[C@@H](N)C[C@H]2NC(=O)[C@@H](O)[C@@H](O)CN)OCC1(C)O (stereo partly shown) [Compound 4]
MIC (PAM3072 aac(6′)-II): > 8 µg/mL
MIC (PAM3073 aac(6′)-I): 1 to 8 µg/mL (≈ 1.64 to 13.1 µM)
MIC [1, 7]: 1 to 8 µg/mL (≈ 1.64 to 13.1 µM)
MIC (ECM6010 ant(2″)-I): 1 to 8 µg/mL (≈ 1.64 to 13.1 µM)
MIC (ECM6009 aac(3)-II): < 1 µg/mL
MIC (ECM6011 aph(3′)-I): < 1 µg/mL
MIC (ECM6006 aph(3′)-III): 1 to 8 µg/mL (≈ 1.64 to 13.1 µM)
MIC (ECM6003 rmtB): > 8 µg/mL
MIC [3, 8]: 1 to 8 µg/mL (≈ 1.64 to 13.1 µM)
MIC [4, 9]: 1 to 8 µg/mL (≈ 1.64 to 13.1 µM)
MIC (EC1002 aph(3′)-IV): 1 to 8 µg/mL (≈ 1.64 to 13.1 µM)
MIC (Sa 287 aac(6′) + aph(2″)): 1 to 8 µg/mL
